Measured values published in PMC6858373 (Scientific Reports, 2019).
“Also recorded” adds a separate entry of the source. Where two headings read alike, the source gives them in different places.

Columns and labels:
[1] = molecular target: T1, FGF14:Nav1.6 C-tail complex (Homo sapiens, UniProt Q92915+Q9UQD0); test: Split-luciferase complementation assay (LCA) in Clone V double stable HEK293 cells; type: cell-based; conditions: for Split Luciferase Assay % Lum Set 1 / Split Luciferase Assay Z-score Set 1: biological replicate Set 1; for Split Luciferase Assay % Lum Set 1 / Split Luciferase Assay %Lum Set 2: normalized to on-plate 0.3% DMSO controls (n=16 per plate); for Split Luciferase Assay %Lum Set 2 / Split Luciferase Assay Z-score Set 2: biological replicate Set 2; for Split Luciferase Assay Z-score Set 1 / Split Luciferase Assay Z-score Set 2: normalized to on-plate 0.3% DMSO controls; for Split Luciferase Assay %Lum Avg: average of Set 1 and Set 2, normalized to 0.3% DMSO controls; for Z-score (LCA primary screening): 30 µM, average of primary screening (n = 2), vs on-plate 0.3% DMSO
T1 construct: polymerase chain reaction (PCR) amplification of the FGF14 open reading frame (nt 1–855); C-terminal fragment of Nav1.6 (amino acids 1763–1976) fused with CD4ΔC-tail (amino acids 1–395); expressed in transfected cells
T1 sequence (Q92915 1-252 isoform Q92915-2): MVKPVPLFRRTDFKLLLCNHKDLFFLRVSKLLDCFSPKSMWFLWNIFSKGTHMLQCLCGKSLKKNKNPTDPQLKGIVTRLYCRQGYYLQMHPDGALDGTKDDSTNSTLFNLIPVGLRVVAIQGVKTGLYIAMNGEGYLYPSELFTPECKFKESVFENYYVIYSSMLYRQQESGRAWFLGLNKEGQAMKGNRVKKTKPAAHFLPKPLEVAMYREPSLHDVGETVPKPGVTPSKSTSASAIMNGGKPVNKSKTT
T1 sequence (Q9UQD0 1763-1976 limits assumed): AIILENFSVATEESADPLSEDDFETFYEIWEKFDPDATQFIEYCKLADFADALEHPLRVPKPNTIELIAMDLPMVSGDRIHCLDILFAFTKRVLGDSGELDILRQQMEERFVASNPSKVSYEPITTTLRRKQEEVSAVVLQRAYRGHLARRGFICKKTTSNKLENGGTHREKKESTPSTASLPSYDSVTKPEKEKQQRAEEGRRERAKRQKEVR

[2] = molecular target: full-length P. pyralis luciferase (Photinus pyralis, UniProt P08659, K549A/L550V/N119G/N50D/S548I); type: cell-based
Sequence of full-length P. pyralis luciferase (P08659 whole entry N50D/N119G/S548I/K549A/L550V, looked up): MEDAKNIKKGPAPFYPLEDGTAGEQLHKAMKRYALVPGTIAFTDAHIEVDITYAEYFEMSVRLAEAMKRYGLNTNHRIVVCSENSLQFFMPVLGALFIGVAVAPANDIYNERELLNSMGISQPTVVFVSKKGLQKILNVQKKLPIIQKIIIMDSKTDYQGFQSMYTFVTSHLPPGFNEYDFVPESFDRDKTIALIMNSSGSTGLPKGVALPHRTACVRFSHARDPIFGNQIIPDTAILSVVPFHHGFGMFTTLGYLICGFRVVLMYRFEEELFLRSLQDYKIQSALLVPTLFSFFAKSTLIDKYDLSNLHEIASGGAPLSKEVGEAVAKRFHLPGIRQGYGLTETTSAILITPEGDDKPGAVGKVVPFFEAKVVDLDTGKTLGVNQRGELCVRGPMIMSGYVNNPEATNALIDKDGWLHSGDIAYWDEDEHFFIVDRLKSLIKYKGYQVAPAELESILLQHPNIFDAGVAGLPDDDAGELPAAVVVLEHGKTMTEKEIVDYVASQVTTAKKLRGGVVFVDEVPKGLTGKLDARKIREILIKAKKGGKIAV

[3] = CC_NCI screening, LCA luminescence
[4] = CC_NCI screening, full-length luciferase counter-screen luminescence, normalized to on-plate 0.3% DMSO controls
[5] = CC_NCI screening, full-length luciferase counter-screen, normalized to on-plate 0.3% DMSO controls
[6] = CC_NCI screening, normalized to on-plate 0.3% DMSO controls

| SMILES | Split Luciferase Assay % Lum Set 1 [1, 3] | Split Luciferase Assay %Lum Set 2 [1, 3] | Split Luciferase Assay Z-score Set 1 ([1]; CC_NCI screening, LCA) | Split Luciferase Assay Z-score Set 2 ([1]; CC_NCI screening, LCA) | Split Luciferase Assay %Lum Avg ([1]; CC_NCI screening) | Luciferase Assay % Lum [2, 4] | Luciferase Assay Z-score [2, 5] | Toxicity Assay % Fluor (Clone V cells; human, 16 h, 30 µM) | Toxicity Assay Z-score (Clone V cells; human, 16 h, 30 µM) | further results |
| --- | --- | --- | --- | --- | --- | --- | --- | --- | --- | --- |
| CCN(CCO)CCCOc1ccc2c(Nc3cc(CC(=O)Nc4cccc(F)c4)[nH]n3)ncnc2c1 [AZD1152-HQPA] | 87.29% | 100.91% | -1.03 | 0.07 | 94.10% | 84.20% | -2.02 | 93.28% | -0.94 |  |
| Cc1nc(Nc2ncc(C(=O)Nc3c(C)cccc3Cl)s2)cc(N2CCN(CCO)CC2)n1 [Dasatinib] | 92.73% | 79.06% | -0.59 | -1.70 | 85.90% | 84.22% | -2.02 |  |  | Toxicity Assay % Fluor (Clone V cells): 94.47%; Toxicity Assay Z-score (Clone V cells): -0.77 |
| C=C(c1ccc(C(=O)O)cc1)c1cc2c(cc1C)C(C)(C)CCC2(C)C [BEXAROTENE] | 129.69% | 99.87% | 2.40 | -0.01 | 114.78% | 99.04% | -0.12 | 86.80% | -1.85 |  |
| O=C(/C=C/c1ccc(CN(CCO)CCc2c[nH]c3ccccc23)cc1)NO [NVP LAQ824] | 93.82% | 83.22% | -0.50 | -1.36 | 88.52% | 95.25% | -0.61 | 98.78% | -0.17 |  |
| O=C(Nc1cccc(Nc2ncc(Br)c(NCCc3cnc[nH]3)n2)c1)N1CCCC1 [BX 912, reference compound] | 35.11% | 40.57% | -5.24 | -4.84 | 37.84% | 85.82% | -1.82 |  |  | Z-score (LCA primary screening) ([1]; 384-well): −5.04; dose-response behavior of repurchased compounds ([1]; 10-point dose response 0.25-50 µM, Clone V cells): counter acting activity as a function of dosage; also recorded: act as enhancers at lower concentrations; IMin (% Luminescence) ([1]; antagonists, Clone V cells, 384-well, normalized to DMSO): 37.84 % Luminescence; action toward the FGF14:Nav1.6 C-tail interaction ([1]; dose-dependency validation using fresh compound samples): acted as antagonists; IC50 ([1]; estimated, 8-point dose response 0.25-30 µM, n = 4 per concentration, library compounds, read-out: IC50): 9.23 µM; IC50 ([1]; repurchased compounds, 10-point dose response 0.25-50 µM, n = 8 per concentration, Clone V cells, 384-well, read-out: in-cell IC50): 6.8 µM; Toxicity Assay % Fluor (Clone V cells): 106.22%; Toxicity Assay Z-score (Clone V cells): 0.87 |
| OCC1OC(O)CC(O)C1O (stereo not drawn) [Compound 2DG] | 104.69% | 130.04% | 0.38 | 2.44 | 117.36% | 91.76% | -1.06 |  |  | Toxicity Assay % Fluor (Clone V cells): 93.82%; Toxicity Assay Z-score (Clone V cells): -0.86 |
| COc1cc2nccc(Oc3ccc(NC(=O)C4(C(=O)Nc5ccc(F)cc5)CC4)cc3)c2cc1OC [Cabozantinib] | 27.50% | 27.05% | -5.86 | -5.94 | 27.28% | 67.75% | -4.13 | 93.87% | -0.86 |  |
| CO[C@@H]1[C@H](N(C)C(=O)c2ccccc2)C[C@H]2O[C@]1(C)n1c3ccccc3c3c4c(c5c6ccccc6n2c5c31)C(=O)NC4 [PKC412] | 54.68% | 67.62% | -3.66 | -2.63 | 61.15% | 89.50% | -1.34 | 83.94% | -2.25 |  |
| O=C1NC(=O)/C(=C/c2ccc3c(c2)OCO3)S1 [AS-041164] |  |  |  |  |  |  |  |  |  | Split Luciferase Assay Z-score Set 1 ([1]; CC_NCI screening): -1.38; Split Luciferase Assay % Lum Set 1 ([1]; CC_NCI screening): 82.95%; Split Luciferase Assay Z-score Set 2 ([1]; CC_NCI screening): 0.50; Split Luciferase Assay %Lum Set 2 ([1]; CC_NCI screening): 106.11%; Split Luciferase Assay %Lum Avg [1]: 94.53%; Luciferase Assay % Lum (full-length luciferase counter-screen) [2, 6]: 84.77%; Luciferase Assay Z-score (full-length luciferase counter-screen) [2, 6]: -1.95; Toxicity Assay % Fluor (CTB cell viability fluorescence) (Clone V cells): 113.38%; Toxicity Assay Z-score (CTB cell viability) (Clone V cells): 1.87 |
| CCN(CC)CCNC(=O)c1c(C)[nH]c(/C=C2\C(=O)Nc3ccc(F)cc32)c1C [SUNITINIB] | 80.77% | 74.90% | -1.55 | -2.04 | 77.84% |  |  |  |  | Luciferase Assay % Lum [2]: 90.75%; Luciferase Assay Z-score [2]: -1.18; Toxicity Assay % Fluor (Clone V cells): 93.10% |
| CC(/C=C/C(=O)NO)=C\[C@@H](C)C(=O)c1ccc(N(C)C)cc1 [TRICHOSTATIN A] | 147.09% | 94.67% | 3.81 | -0.43 | 120.88% | 33.58% | -8.51 |  |  | Toxicity Assay % Fluor (Clone V cells): 97.32%; Toxicity Assay Z-score (Clone V cells): -0.37 |
| O=c1cc(-c2cccc3c2Sc2ccccc2S3)oc(N2CCOCC2)c1 [KU-55933] | 69.90% | 81.14% | -2.43 | -1.53 | 75.52% | 33.90% | -8.46 | 89.20% | -1.51 |  |
| CS(=O)(=O)CCNCc1ccc(-c2ccc3ncnc(Nc4ccc(OCc5cccc(F)c5)c(Cl)c4)c3c2)o1 [Lapatinib] |  |  |  |  |  |  |  |  |  | Split Luciferase Assay Z-score Set 1 ([1]; CC_NCI screening): 1.35; Split Luciferase Assay Z-score Set 2 ([1]; CC_NCI screening): -1.87; Split Luciferase Assay %Lum Set 2 ([1]; CC_NCI screening): 76.98%; Split Luciferase Assay %Lum Avg [1]: 96.81%; Luciferase Assay % Lum (full-length luciferase counter-screen) [2]: 75.39%; Luciferase Assay Z-score (full-length luciferase counter-screen) [2]: -3.15; Toxicity Assay % Fluor (CTB cell viability fluorescence) (Clone V cells): 114.10%; Toxicity Assay Z-score (CTB cell viability) (Clone V cells): 1.97 |
| Nc1ncnc2c1c(-c1cnc3[nH]ccc3c1)nn2C1CCCC1 [PP121, reference compound] |  |  |  |  |  |  |  |  |  | Z-score (LCA primary screening) ([1]; 384-well): −4.14; Split Luciferase Assay Z-score Set 1 ([1]; CC_NCI screening): -4.89; Split Luciferase Assay % Lum Set 1 ([1]; CC_NCI screening): 39.46%; Split Luciferase Assay Z-score Set 2 ([1]; CC_NCI screening): -3.40; Split Luciferase Assay %Lum Set 2 ([1]; CC_NCI screening): 58.26%; Split Luciferase Assay %Lum Avg [1]: 48.86%; Z-score, full-length luciferase assay ([2]; 30 µM, 384-well plates, vs on-plate 0.3% DMSO): 3.11; Luciferase Assay % Lum (full-length luciferase counter-screen) [2, 6]: 124.27%; Luciferase Assay Z-score (full-length luciferase counter-screen) [2, 6]: 3.11; Toxicity Assay % Fluor (CTB cell viability fluorescence) (Clone V cells): 111.23%; Toxicity Assay Z-score (CTB cell viability) (Clone V cells): 1.57 |
| O=c1[nH]nc(Sc2ncc([N+](=O)[O-])s2)n1-c1ccc2c(c1)OCCO2 [JNK INHIBITOR X] |  |  |  |  |  |  |  |  |  | Split Luciferase Assay Z-score Set 1 ([1]; CC_NCI screening): -7.97; Split Luciferase Assay % Lum Set 1 ([1]; CC_NCI screening): 1.41%; Split Luciferase Assay Z-score Set 2 ([1]; CC_NCI screening): -7.88; Split Luciferase Assay %Lum Set 2 ([1]; CC_NCI screening): 3.12%; Split Luciferase Assay %Lum Avg [1]: 2.27%; Luciferase Assay % Lum (full-length luciferase counter-screen) [2, 6]: 4.80%; Luciferase Assay Z-score (full-length luciferase counter-screen) [2, 6]: -12.19; Toxicity Assay % Fluor (CTB cell viability fluorescence) (Clone V cells): 82.79%; Toxicity Assay Z-score (CTB cell viability) (Clone V cells): -2.41 |
| Cc1[nH]c(/C=C2\C(=O)Nc3ccc(S(=O)(=O)N(C)c4cccc(Cl)c4)cc32)c(C)c1C(=O)N1CCN(C)CC1 [SU 11274] | 81.86% | 81.14% | -1.47 | -1.53 | 81.50% | 85.15% | -1.90 | 97.70% | -0.32 |  |
| Cc1cn(-c2cc(NC(=O)c3ccc(C)c(Nc4nccc(-c5cccnc5)n4)c3)cc(C(F)(F)F)c2)cn1 [Nilotinib] | 126.43% | 113.39% | 2.14 | 1.09 | 119.91% | 94.65% | -0.68 | 85.20% | -2.07 |  |
